Measured values: US7566531B2, “Selective whole cell quartz crystal microbalance biosensors” (University of Massachusetts, priority 2003, dated 2009)

Experiments:
[1] = tested on: normal capillary endothelial cells; assay: cell removal from QCM by PBS-EGTA; type: cell-based
Description: The above-described QCM biosensor was used to study cells and the ECM made by the cells. 50,000 normal capillary endothelial cells were seeded onto the QCM and maintained in DMEM-10% Calf Serum for 3-4 days to synthesize ECM. The cells were then removed by incubating in PBS-0.25 mM EGTA three times for 6 hours according to the method described in Paige et al., Cell Dev. Biol., 27A:151-157, 1991. During this process, the frequency and resistance of the QCM were recorded and plotted.
To corroborate this discovery, immunocytochemistry was carried out to examine actin stress fiber in the cells using standard techniques.

[2] = tested on: MCF-7 cells; assay: whole cell QCM biosensor, Δf and ΔR after drug addition; type: cell-based, human; conditions: for QCM frequency decrease, Phase I / change in QCM resistance, Phase I: hour 0 to hour 6 post drug addition; for QCM frequency decrease, Phase I / change in QCM resistance, Phase I / QCM frequency increase, Phase II: 0.1 μM docetaxel, 10 μM paclitaxel; for QCM frequency increase, Phase II: hour 6 to hour 20 post drug addition
Description: (§1) Normal human mammary epithelial cells (HMEC), estrogen receptor-positive human breast cancer cells (MCF-7, a non-metastatic, malignant mammary epithelial cells), and estrogen receptor-negative metastatic human breast cancer cells (MDA-MB-231) were used for this study. These commercially available cells were cultured and harvested as recommended by the supplier, American Type Cell Cultures (ATCC). The cells were then seeded onto the chemically modified conducting surface of separate whole cell QCM biosensors and were allowed to reach the steady state. In general, it takes about 12-14 hours (hours) or less (as quick as within 6 hours) for the cells to reach the steady state on the new selective whole cell QCM biosensors. In contrast, on a QCM biosensor without the selective substrate, it takes about 20-24 hours for the cells to reach steady state. Cell number-dependent characteristic Δf and ΔR shift values of these cells were recorded as described in Marx et al., Biosens. Bioelectron., 16(9-12):773-82, 2001.
(§2) MCF-7 cells, which are resistant to paclitaxel treatment and MDA-MB-231 cells, which are sensitive to paclitaxel treatment were seeded onto two separate whole cell QCM biosensors and allowed to reach steady state as described above.
(§3) Paclitaxel (Sigma Chemical Company) was dissolved in dimethylsulfoxide to make a stock solution. The stock solution was properly diluted in culture media before being added to the cells on the QCM biosensors, so that the final concentration was 10 μM. […] After adding paclitaxel, the Δf and ΔR of the QCMs were monitored and recorded hourly.
(§4) MCF-7 cells and MDA-MB-231 cells were cultured and seeded onto QCM biosensors according to the method described above. The cells were then incubated with 0.1 μM docetaxel (Aventis Pharmaceuticals) and 10 μM paclitaxel. The changes in frequencies and resistances of the QCMs were monitored for 24 hours.

[3] = tested on: MDA-MB-231 cells; assay: as above; type: cell-based, human; conditions: for QCM frequency decrease, Phase I / increase in QCM resistance, Phase I: hour 0 to hour 6 post drug addition; for QCM frequency decrease, Phase I / increase in QCM resistance, Phase I / QCM frequency increase, Phase II: 0.1 μM docetaxel, 10 μM paclitaxel; for QCM frequency increase, Phase II: hour 6 to hour 20 post drug addition
Description: as §1, §2, §3, §4

[4] = tested on: MCF-7 cells; assay: conventional proliferation assays and apoptosis assays; type: cell-based, human
Description: (§5) To confirm that the changes in the QCM frequency and resistance are associated with changes in cell growth or apoptosis, conventional proliferation assays and apoptosis assays were conducted on MDA-MB-231 cells and MCF-7 cells treated with docetaxel or paclitaxel. […] For example, both drugs reduced the mitotic index of MCF-7 cells and eliminated that of MDA-MB-231.

[5] = tested on: MDA-MB-231 cells; assay: as above; type: cell-based, human
Description: as §5

[6] = tested on: MCF-7 cells; assay: apoptosis assay (DAPI staining; Apoptotic Index and Mitotic Index); type: cell-based, human
Description: (§6) Duplicate MCF-7 or MDA-MB-231 cells that were treated with the same dose of paclitaxel were analyzed using an apoptosis assay as described in Warren M. et al., Free Radic Biol Med. 29:537-47, 2000. Briefly, cells were fixed sequentially in 50% and 100% methanol for 5 minutes each. The cells were then stained with 4,6,diamidino-2-phenylindole (DAPI; Sigma) at a final concentration of 0.5 mg/ml at 37° C. for 30 minutes. After being air-dried and mounted with 1:3 PBS-glycerol, chromatin distribution in the cells were visualized by fluorescence. […] Apoptosis was scored as the percentage of apoptotic cells in relation to the total cell number (i.e., Apoptotic Index), corrected for baseline apoptosis. Mitotic cells were also identified and mitosis was scored as the percentage of the mitotic cells in relation to all of the cells (i.e., Mitotic Index).

[7] = tested on: MDA-MB-231 cells; assay: as above; type: cell-based, human
Description: as §6

[8] = tested on: MCF-7 cells; assay: as above; type: cell-based, human; conditions: 10 μM
[9] = PBS-0.25 mM EGTA, EGTA 1 at hour 112 after cell seeding
[10] = 10 μM, 8 hours post paclitaxel addition
[11] = 10 μM, 50 hours post paclitaxel addition
[12] = 10 μM, between 8 and 50 hours post addition

O=C(O)CN(CCOCCOCCN(CC(=O)O)CC(=O)O)CC(=O)O [EGTA]
ΔR on initial exposure [1, 9]: large decrease
Δf on initial exposure [1, 9]: large increase
time for frequency and resistance to return to stable values ([1]; PBS-0.25 mM EGTA, first exposure): ≤ 2 h
cell detachment from the surface ([1]; minute 120 after exposing to EGTA): most cells had detached

CC(=O)O[C@@]12CO[C@@H]1C[C@H](O)[C@@]1(C)C(=O)[C@H](O)C3=C(C)[C@@H](OC(=O)[C@H](O)[C@@H](NC(=O)OC(C)(C)C)c4ccccc4)C[C@@](O)([C@@H](OC(=O)c4ccccc4)[C@H]21)C3(C)C [docetaxel]
QCM frequency decrease, Phase I [2]: −50 Hz
change in QCM resistance, Phase I [2]: little change
QCM frequency increase, Phase II [2]: 10-20 Hz
QCM frequency decrease, Phase I [3]: −70 Hz
increase in QCM resistance, Phase I [3]: 20 Ohm
QCM frequency increase, Phase II [3]: 98 Hz
apoptosis [4]: induced apoptosis
cell growth [4]: inhibited cell growth
mitotic index [4]: reduced
apoptosis [5]: induced apoptosis
cell growth [5]: inhibited cell growth
mitotic index [5]: eliminated

CC(=O)O[C@H]1C(=O)[C@@]2(C)[C@H]([C@H](OC(=O)c3ccccc3)[C@]3(O)C[C@H](OC(=O)[C@H](O)[C@@H](NC(=O)c4ccccc4)c4ccccc4)C(C)=C1C3(C)C)[C@]1(OC(C)=O)CO[C@@H]1C[C@@H]2O [paclitaxel]
Apoptotic Index (AI) ([6]; 3 hours, 10 uM): <1%
Mitotic Index (MI) ([6]; 3 hours, 10 uM): 1%
Apoptotic Index (AI) ([6]; 6 hours, 0.1 uM): 1%
Mitotic Index (MI) ([6]; 6 hours, 0.1 uM): 1%
Apoptotic Index (AI) ([6]; 6 hours, 1.0 uM): 4.5%
Mitotic Index (MI) ([6]; 6 hours, 1.0 uM): 0%
Apoptotic Index (AI) ([6]; 6 hours, 10 uM): 11%
Mitotic Index (MI) ([6]; 6 hours, 10 uM): 0%
Apoptotic Index (AI) ([6]; 12 hours, 10 uM): 25%
Mitotic Index (MI) ([6]; 12 hours, 10 uM): 0%
Apoptotic Index (AI) ([6]; 24 hours, 10 uM): 33%
Mitotic Index (MI) ([6]; 24 hours, 10 uM): 0%
start of obvious cell shape change and eventually apoptosis, time post paclitaxel addition ([7]; 10 μM): 8 h
Apoptotic Index (AI) ([7]; 3 hours, 10 uM): <1%
Mitotic Index (MI) ([7]; 3 hours, 10 uM): 0%
Apoptotic Index (AI) ([7]; 6 hours, 0.1 uM): 1%
Mitotic Index (MI) ([7]; 6 hours, 0.1 uM): 0%
Apoptotic Index (AI) ([7]; 6 hours, 1.0 uM): 8.5%
Mitotic Index (MI) ([7]; 6 hours, 1.0 uM): 0%
Apoptotic Index (AI) ([7]; 6 hours, 10 uM): 10%
Mitotic Index (MI) ([7]; 6 hours, 10 uM): 0%
Apoptotic Index (AI) ([7]; 12 hours, 10 uM): 40%
Mitotic Index (MI) ([7]; 12 hours, 10 uM): 0%
Apoptotic Index (AI) ([7]; 24 hours, 10 uM): 84%
Mitotic Index (MI) ([7]; 24 hours, 10 uM): 0%
ΔR decrease immediately after adding the drug ([2]; 10 μM): 50 Ω
ΔR [2, 10]: about 40 Ω
Δf [2, 10]: −300 Hz
ΔR [2, 11]: about 20 Ω
Δf [2, 11]: −260 Hz
magnitude of change of ΔR [2, 12]: 20 Ω
magnitude of change of Δf [2, 12]: 40 Hz
QCM frequency decrease, Phase I [2]: −20 Hz
change in QCM resistance, Phase I [2]: little change
QCM frequency increase, Phase II [2]: 50 Hz
ΔR increase immediately after adding the drug ([3]; 10 μM): about 70 Ω
ΔR [3, 10]: about 80 Ω
Δf [3, 10]: −250 Hz
ΔR [3, 11]: about 40 Ω
Δf [3, 11]: −110 Hz
magnitude of change of ΔR [3, 12]: 40 Ω
magnitude of change of Δf [3, 12]: 140 Hz
QCM frequency decrease, Phase I [3]: −20 Hz
increase in QCM resistance, Phase I [3]: little change
QCM frequency increase, Phase II [3]: 60 Hz
apoptosis [4]: induced apoptosis
cell growth [4]: inhibited cell growth
mitotic index [4]: reduced
apoptosis [5]: induced apoptosis
cell growth [5]: inhibited cell growth
mitotic index [5]: eliminated
start of obvious cell shape change and eventually apoptosis, time post paclitaxel addition [8]: 8 h
